{"source": "patent US20240293405A1", "about": "“(1H-PYRROLO[2,3-B]PYRIDIN-1-YL)PYRIMIDIN-2-YL-AMINO-PHENYL-ACRYLAMIDE INHIBITORS OF EGFR FOR USE IN THE TREATMENT OF BRAIN TUMORS” (Dana-Farber Cancer Institute, Inc., priority 2021, published 2024)", "key": {"[1]": {"tested_on": "293-EGFRvIII cells", "experiment": "Cell viability of 293-EGFRvIII cells (CellTiter-Glo)", "assay_type": "cell-based, human", "details": "Homo sapiens, 72 h, read-out: IC50, viability of 293-EGFRvIII cells", "experimental": "(§1) Cells were seeded in 96-well plates at a density of 1,000 cells per well and treated with two-fold serial dilutions of compounds with a starting concentration of 20 μM. Cell viability was assessed after three days of treatment by CellTiter-Glo (Promega). Curve fitting analysis and IC50 value determination were performed using GraphPad Prism 8."}, "[2]": {"tested_on": "U251-EGFRvIII cells", "experiment": "Viability/proliferation of U251-EGFRvIII cells", "assay_type": "cell-based, human", "experimental": "as §1\nIn parallel, the conventional human GBM U251 cell line was used as a surrogate model for both in vitro and in vivo studies. U251 cells were engineered to stably express EGFRvIII (U251-EGFRvIII) via retroviral-mediated gene transfer."}, "[3]": {"molecular_target": "ALK (Homo sapiens, UniProt Q9UM73)", "sequence (Q9UM73 19-1620)": "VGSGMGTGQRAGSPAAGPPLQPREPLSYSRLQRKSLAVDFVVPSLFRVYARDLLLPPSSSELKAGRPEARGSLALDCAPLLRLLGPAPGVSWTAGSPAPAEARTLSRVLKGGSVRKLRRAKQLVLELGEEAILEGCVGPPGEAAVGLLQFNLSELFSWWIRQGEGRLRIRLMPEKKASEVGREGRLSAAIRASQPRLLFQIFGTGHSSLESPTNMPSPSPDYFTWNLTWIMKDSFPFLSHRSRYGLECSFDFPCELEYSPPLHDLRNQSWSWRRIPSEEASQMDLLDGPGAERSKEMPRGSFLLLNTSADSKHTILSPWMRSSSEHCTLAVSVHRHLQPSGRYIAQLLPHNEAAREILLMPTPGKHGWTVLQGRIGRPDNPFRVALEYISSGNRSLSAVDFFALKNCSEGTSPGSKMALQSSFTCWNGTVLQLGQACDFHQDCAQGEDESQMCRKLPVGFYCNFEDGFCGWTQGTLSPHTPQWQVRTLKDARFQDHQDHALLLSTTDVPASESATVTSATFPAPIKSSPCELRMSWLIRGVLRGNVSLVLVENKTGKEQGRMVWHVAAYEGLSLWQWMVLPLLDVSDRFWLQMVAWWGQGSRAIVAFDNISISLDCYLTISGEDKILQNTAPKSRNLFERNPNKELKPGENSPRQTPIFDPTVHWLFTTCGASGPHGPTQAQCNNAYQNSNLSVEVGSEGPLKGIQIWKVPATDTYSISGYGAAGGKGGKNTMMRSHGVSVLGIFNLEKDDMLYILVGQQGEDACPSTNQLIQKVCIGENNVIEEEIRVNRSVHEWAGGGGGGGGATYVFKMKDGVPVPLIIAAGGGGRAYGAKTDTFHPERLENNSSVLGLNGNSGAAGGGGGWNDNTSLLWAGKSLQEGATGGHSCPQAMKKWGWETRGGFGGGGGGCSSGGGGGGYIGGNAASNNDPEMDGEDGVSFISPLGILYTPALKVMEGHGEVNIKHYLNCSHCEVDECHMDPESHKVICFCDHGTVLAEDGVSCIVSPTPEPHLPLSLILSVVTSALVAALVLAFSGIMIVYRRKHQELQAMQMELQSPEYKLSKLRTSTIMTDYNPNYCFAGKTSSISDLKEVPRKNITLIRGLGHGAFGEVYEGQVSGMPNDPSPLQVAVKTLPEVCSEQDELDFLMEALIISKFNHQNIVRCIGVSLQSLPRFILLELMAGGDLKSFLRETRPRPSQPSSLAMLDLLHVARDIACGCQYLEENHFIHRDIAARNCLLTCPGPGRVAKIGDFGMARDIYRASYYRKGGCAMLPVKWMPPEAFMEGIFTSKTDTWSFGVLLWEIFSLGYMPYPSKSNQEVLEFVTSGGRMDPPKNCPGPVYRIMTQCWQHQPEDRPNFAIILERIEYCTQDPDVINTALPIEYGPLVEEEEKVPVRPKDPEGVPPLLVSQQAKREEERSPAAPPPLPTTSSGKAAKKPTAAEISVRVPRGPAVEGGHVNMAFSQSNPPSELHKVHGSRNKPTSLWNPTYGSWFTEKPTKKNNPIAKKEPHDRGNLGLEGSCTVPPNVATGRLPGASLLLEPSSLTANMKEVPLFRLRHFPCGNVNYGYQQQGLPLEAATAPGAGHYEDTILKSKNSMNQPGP", "experiment": "Kinase binding constant (Kd)", "experimental": "(§2) EGFR amplifications and/or mutations are common in GBM, estimated to occur in over 50% of patients.\n(§3) Compound 1 and Compound 2 (major metabolite) were evaluated in a panel of 468 human kinases and disease relevant mutant variants. Compound 1 and Compound 2 bound to few non-mutant kinases at <1% of control. […] While there is some variability between Compound 1 and Compound 2, it is clear that both compounds are very effective at binding to a large panel of mutant kinases. […] Binding constant to wild type EGFR was 4.9 nM."}, "[4]": {"molecular_target": "PDGFRA (Homo sapiens, UniProt P16234)", "sequence (P16234 24-1089)": "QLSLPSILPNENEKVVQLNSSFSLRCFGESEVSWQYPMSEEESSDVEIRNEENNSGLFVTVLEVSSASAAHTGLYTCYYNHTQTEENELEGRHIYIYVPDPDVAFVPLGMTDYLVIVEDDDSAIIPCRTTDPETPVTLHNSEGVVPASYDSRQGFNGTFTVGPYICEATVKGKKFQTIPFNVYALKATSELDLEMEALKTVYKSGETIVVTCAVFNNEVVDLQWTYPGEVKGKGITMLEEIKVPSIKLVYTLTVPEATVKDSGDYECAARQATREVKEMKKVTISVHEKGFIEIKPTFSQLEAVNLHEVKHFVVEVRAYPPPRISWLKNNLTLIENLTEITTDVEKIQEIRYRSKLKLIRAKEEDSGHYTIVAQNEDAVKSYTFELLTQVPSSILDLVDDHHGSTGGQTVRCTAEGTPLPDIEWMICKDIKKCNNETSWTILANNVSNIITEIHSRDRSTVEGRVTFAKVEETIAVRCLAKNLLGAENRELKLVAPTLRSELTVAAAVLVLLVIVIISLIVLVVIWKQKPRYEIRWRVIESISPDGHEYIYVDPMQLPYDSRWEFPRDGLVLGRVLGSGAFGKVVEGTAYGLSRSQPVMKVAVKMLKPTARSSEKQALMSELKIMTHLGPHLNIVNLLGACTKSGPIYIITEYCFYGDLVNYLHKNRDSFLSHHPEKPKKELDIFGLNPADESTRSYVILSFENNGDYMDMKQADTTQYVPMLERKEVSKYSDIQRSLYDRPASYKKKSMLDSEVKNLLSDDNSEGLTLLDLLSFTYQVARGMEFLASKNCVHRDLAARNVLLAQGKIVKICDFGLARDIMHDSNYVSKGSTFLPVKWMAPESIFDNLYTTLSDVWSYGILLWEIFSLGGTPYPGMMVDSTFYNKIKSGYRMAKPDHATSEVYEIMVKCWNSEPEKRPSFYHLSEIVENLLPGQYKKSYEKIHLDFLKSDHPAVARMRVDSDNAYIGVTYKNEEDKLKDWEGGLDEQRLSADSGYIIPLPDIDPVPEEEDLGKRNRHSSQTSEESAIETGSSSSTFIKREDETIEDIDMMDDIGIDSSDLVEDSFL", "experiment": "Kinase binding constant (Kd)", "experimental": "as §2, §3"}, "[5]": {"molecular_target": "PDGFRB (Homo sapiens, UniProt P09619)", "sequence (P09619 33-1106)": "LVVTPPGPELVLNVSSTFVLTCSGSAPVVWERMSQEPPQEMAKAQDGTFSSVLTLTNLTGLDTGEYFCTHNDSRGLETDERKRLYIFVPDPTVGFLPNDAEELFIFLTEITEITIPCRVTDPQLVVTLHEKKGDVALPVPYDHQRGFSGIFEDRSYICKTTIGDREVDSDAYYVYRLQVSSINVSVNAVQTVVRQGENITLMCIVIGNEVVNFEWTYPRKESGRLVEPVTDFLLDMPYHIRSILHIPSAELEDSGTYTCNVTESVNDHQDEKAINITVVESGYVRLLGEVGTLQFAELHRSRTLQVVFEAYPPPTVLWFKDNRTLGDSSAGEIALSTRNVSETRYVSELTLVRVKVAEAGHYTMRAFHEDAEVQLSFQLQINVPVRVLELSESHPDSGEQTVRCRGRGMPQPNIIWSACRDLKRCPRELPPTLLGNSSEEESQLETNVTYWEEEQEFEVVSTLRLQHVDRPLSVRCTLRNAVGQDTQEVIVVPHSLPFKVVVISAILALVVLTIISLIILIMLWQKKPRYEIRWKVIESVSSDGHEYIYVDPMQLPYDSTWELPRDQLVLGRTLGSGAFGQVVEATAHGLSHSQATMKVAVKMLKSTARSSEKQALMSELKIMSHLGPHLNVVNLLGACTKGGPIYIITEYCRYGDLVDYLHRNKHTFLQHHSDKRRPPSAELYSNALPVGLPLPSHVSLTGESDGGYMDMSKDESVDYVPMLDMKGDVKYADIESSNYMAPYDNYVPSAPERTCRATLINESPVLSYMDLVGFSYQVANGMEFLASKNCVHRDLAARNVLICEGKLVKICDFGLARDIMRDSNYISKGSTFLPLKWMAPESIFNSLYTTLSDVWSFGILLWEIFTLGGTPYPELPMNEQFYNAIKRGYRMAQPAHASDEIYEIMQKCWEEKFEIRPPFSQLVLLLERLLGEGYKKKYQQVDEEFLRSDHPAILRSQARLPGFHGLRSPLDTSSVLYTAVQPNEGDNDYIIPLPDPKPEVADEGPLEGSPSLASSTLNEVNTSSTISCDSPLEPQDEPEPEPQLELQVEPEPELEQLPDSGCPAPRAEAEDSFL", "experiment": "Kinase binding constant (Kd)", "experimental": "as §2, §3"}, "[6]": {"experiment": "Body weight over the course of treatment in mice", "assay_type": "in vivo", "details": "25 mg/kg; study endpoint reached within one month"}, "[7]": {"tested_on": "NCI-H1975 cells (EGFR L858R/T790M mutation)", "experiment": "Cell viability assay, NCI-H1975 (CellTiter-Glo)", "assay_type": "cell-based", "details": "Homo sapiens, NCI-H1975, 72 h, read-out: IC50, cell viability", "source_text": "(§4) CellTier-Glo (Promega) assay kit (https://www.promega.com/resources/protocols/technical-bulletins/0/celltiter-glo-luminescentcell-viability-assay-protocol/) was used here."}, "[8]": {"tested_on": "PC-9 cells (EGFR exon 19 deletion)", "experiment": "Cell viability assay, PC-9 (CellTiter-Glo)", "assay_type": "cell-based", "details": "Homo sapiens, PC-9, read-out: IC50, cell viability", "source_text": "as §4"}, "[9]": {"tested_on": "P-gp, Bcrp", "details": "previously published report; cited from earlier work"}, "[10]": {"tested_on": "NSCLC brain metastases", "experiment": "NSCLC brain metastases in SCID mice", "details": "25 mg/kg; […]"}}, "note": "Where two headings read alike, the source gives them in different places."}
{"smiles": "C=CC(=O)Nc1cc(Nc2nccc(-c3cn(C)c4ccccc34)n2)c(OC)cc1N(C)CCN(C)C", "note": "[Osimertinib, reference compound]", "values": [{"measurement": "IC50", "setting": "[1]", "value": 2190, "unit": "nM"}, {"measurement": "IC50", "setting": "[2]; Homo sapiens, read-out: IC50, viability of U251-EGFRvIII cells", "value": "[…]"}, {"measurement": "IC50", "setting": "[2]; Homo sapiens, read-out: IC50 on U251-EGFRvIII cell proliferation", "value": 2450, "unit": "nM"}, {"measurement": "IC50", "setting": "[2]; read-out: IC50, viability of U251-EGFRvIII cells", "value": 2600, "unit": "nM"}, {"measurement": "Kd", "setting": "[3]", "value": 69, "unit": "nM"}, {"measurement": "Kd", "setting": "[4]", "value": 740, "unit": "nM"}, {"measurement": "Kd", "setting": "[5]", "value": 1500, "unit": "nM"}, {"measurement": "body weight over the course of treatment", "setting": "[6]", "value": "significant body weight loss"}, {"measurement": "IC50", "setting": "[7]", "value": "[…]"}, {"measurement": "IC50", "setting": "[8]", "value": 18.1, "unit": "nM"}, {"measurement": "Efflux Liability", "setting": "[9]", "value": "P-gp, Bcrp"}, {"measurement": "time at which study endpoint was reached", "setting": "[10]", "value": 4, "unit": "weeks"}]}
